Results published in patent US20070087021A1, “METHOD OF PROTECTING AGAINST CHRONIC INFECTIONS” (priority 1997, published 2007).

How the values were obtained:
coccidiosis [1] = experiment: Paired-barn comparison repeated: vaccine/monensin treatment vs monensin alone; format: in vivo, poultry; settings: cockerels
Method: (§1) A gel form vaccine was prepared by first adding 200 ml of hot tap water to 5 gm of kappa carrageenan Bengel MB 910 in a container and mixing until the MB 910 had dissolved. To this solution was added 200 ml of a solution containing 500 oocysts per ml of a mixture of Eimeria acervulina, E. maxima and E. tenella and the combined solution was mixed. The solution was then poured into a plastic watering dish and allowed to cool and get at 4° C.
(§2) A paired-barn comparison was conducted between use of a anticoccidial ionophore and the method of the present invention for protecting poultry against coccidiosis. 51,000 birds were divided into two groups. One group was maintained on feed containing 60 mg per kilogram of feed of salinomycin sodium COXISTAC (Pfizer). The second group was administered the vaccine prepared in accordance with Example 1 on Day 1. These birds were maintained on feed with no medication for 10 days. Thereafter, 60 mg per kilogram of salinomycin sodium was utilized in the feed for a further 10 days after which the animals were maintained on non-medicated feed until shipping. A virginiamysin based growth promotant STAFAC (SmithKline Beecham) at a level of 11 mg per kilogram of feed was used as a growth promotant in both groups.
The above example was repeated comparing vaccine/monensin treatment with monensin alone and the results from this are shown in Table 2.

coccidiosis [2] = experiment: Paired-barn comparison of anticoccidial ionophore (salinomycin) vs vaccine plus salinomycin for protecting poultry against coccidiosis; format: in vivo
Method: as §1, §2

[3] = birds, market age 42 days / 52 days

Row | SMILES | EEF (European Efficiency Factor) (coccidiosis [1]) | Feed Conversion Ratio (coccidiosis [1]) | Avg. Weight (coccidiosis [1]; average at market (Monesin group: market age 47 days)) | Livability (%) (coccidiosis [1]; vaccine group: 2 weeks no medication, then 2 weeks monensin in feed) | Avg. Weight (coccidiosis [2]; [3]) | Feed Conversion Ratio (coccidiosis [2]; [3]) | Livability (%) (coccidiosis [2]; birds, market age 42 days / 52 days, salinomycin sodium 60 mg per kg feed (vaccine group: 10 days no medication, then 10 days salinomycin)) | EEF (European Efficiency Factor) (coccidiosis [2]; related to percent livability, average market weight, feed conversion rate and market age)
1 | CC[C@@]1([C@@H]2O[C@@H]([C@H]3O[C@@](O)(CO)[C@H](C)C[C@@H]3C)C[C@@H]2C)CC[C@H]([C@]2(C)CC[C@]3(C[C@H](O)[C@@H](C)[C@@H]([C@@H](C)[C@@H](OC)[C@H](C)C(=O)O)O3)O2)O1 [Monesin, monensin] | 2.23 | 2.19 | 2.44 kg | 94.1% | – | – | – | –
2 | CC[C@@H](C(=O)[C@@H](C)[C@@H](O)[C@H](C)[C@@H]1O[C@@H]([C@@H](CC)C(=O)O)CC[C@@H]1C)[C@H]1O[C@]2(C=C[C@@H](O)[C@]3(CC[C@@](C)([C@H]4CC[C@](O)(CC)[C@H](C)O4)O3)O2)[C@H](C)C[C@@H]1C [Salinomycin, salinomycin sodium] | – | – | – | – | 2.72 kg | 2.16 | 91.8% | 2.23
